Test results from PubChem BioAssay AID1902 (Broad Institute, 2009).
Active and inactive are the calls of the source.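 Rule for the calls: active = EC50 no more than a set limit of log units above the highest dose; inactive = the rest.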

molecular target: S. pyogenes SKKanGAS, kanamycin survival, BacTiterGlo, 6 h; test: SKKanGAS survival reduction under kanamycin, dose response, streptokinase promoter inhibitor project, SKKanGAS strain, luminescence, dose confirmation (AID 1902);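 note: lower survival reflects blocked streptokinase promoter driving kanamycin resistance gene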

Row | SMILES | EC50
1 | COc1cc(/C=C2/SC(=S)N(Cc3ccccc3)C2=O)cc(Cl)c1O | 2.58 µM
2 | Cc1nn(C)c(C(=O)Nc2ccc(S(=O)(=O)NC34CC5CC(CC(C5)C3)C4)cc2)c1Br | 4.9 µM
3 | Cc1nc(Nc2nc(-c3ccccc3)cc(=O)[nH]2)nc2ccccc12 | 5.67 µM
4 | COc1ccc(-c2c(C#N)c(N)nc3sc(C(=O)c4ccccc4)c(N)c23)cc1 | 5.9 µM
5 | CC(C)CN(C(=O)COc1ccc(-c2nnco2)cc1)C1CCS(=O)(=O)C1 (stereo not drawn) | > 15 µM (inactive)
6 | Cc1ncc(CO)c(/C=N/NC(=O)c2cc(Br)ccc2O)c1O | 1.52 µM
7 | CC1=CC(C)(C)n2c(O)c(N=N)c3c(C)c(C)cc1c32 | 5.67 µM
8 | CCCCn1c(=O)c(C(=O)Nc2ccccn2)c(O)c2ccccc21 | 5.09 µM
9 | CC(C)(C)c1ccc(OCCCC(=O)NC2=NCCS2)cc1 | 3.87 µM
10 | CC(C)=CCc1cc([C@@H]2COc3c(ccc4c3C=CC(C)(C)O4)C2)c(O)cc1O | 2.94 µM
11 | Oc1c(Br)cc(Br)cc1Oc1ccc(Br)cc1Br | 1.77 µM
12 | N=C(N)c1ccc(/C=C/c2ccc(C(=N)N)cc2O)cc1 | 3.34 µM
13 | COc1ccc(C(=O)c2c(C(F)(F)F)oc3c2C(=O)c2ccccc2C3=O)cc1 | 1.99 µM
14 | Cc1ccc(N=Nc2ccc(O)c(P(=O)(c3ccccc3)c3ccccc3)c2)cc1 | 3.36 µM
15 | CCn1cc(C(=O)OCC(=O)c2cc(C)n(-c3cccc(C(F)(F)F)c3)c2C)c(=O)c2ccc(C)nc21 | 9.92 µM
16 | Cc1ccc(NS(=O)(=O)c2cc([N+](=O)[O-])ccc2NNC(=S)Nc2cccc(Cl)c2)c(C)c1 | 0.865 µM
17 | CC(Oc1ccc(Cl)cc1Cl)C(=O)NC1=NN(c2ccccc2)C(=O)C1 (stereo not drawn) | 2.92 µM
18 | CC(C)C[C@H](NC(=O)N1CC(=O)Nc2ccccc21)C(=O)N[C@H](C(=O)O)c1ccccc1 | > 15 µM (inactive)
19 | C/C(=N\NC(=O)c1nnn(-c2nonc2N)c1CN(C)c1ccccc1)c1ccccc1O | 2.75 µM
20 | CC1=C(C#N)c2nc(N)c(C#N)c(C)c2/C1=C\c1ccc(C)cc1 | 6.18 µM
21 | CCOc1cccc(/C=N/NC(=S)Nc2ccccc2[N+](=O)[O-])c1O | 0.095 µM
22 | O=C(Nc1ccc([N+](=O)[O-])cc1)Nc1nc(-c2ccc(Cl)s2)cs1 | 2.95 µM
23 | Cn1ncc2c(Nc3ccc(Br)cc3)nc(Nc3ccc(Br)cc3)nc21 | 1.08 µM
24 | CCCCC(=O)NC(c1ccco1)c1cc(Cl)c2cccnc2c1O (stereo not drawn) | 2.03 µM
25 | Cc1ccc(Nc2cc(C)nn2-c2nc(C)cc(C)n2)cc1 | 6.47 µM
26 | N=C1S/C(=C\c2ccco2)C(=O)N1c1nccs1 | 2.13 µM
27 | O=[N+]([O-])c1ccc(O)c(-c2cc(C(F)(F)F)nc(-c3ccccc3)n2)c1 | 0.205 µM

Row | SMILES | EC50
28 | COc1ccc2c(c1)[nH]c1c(=O)n(CCc3cnc[nH]3)cnc12 | > 15 µM (inactive)
29 | CC(NS(=O)(=O)/C=C/c1ccccc1)C(=O)O (stereo not drawn) | > 15 µM (inactive)
30 | Oc1c(Cl)cc(Cl)c2cccnc12 | 0.148 µM
31 | O=C(CN1CCc2ccccc2C1)Nc1ccccc1N1CCCCCC1 | 2.42 µM
32 | O=C(NNC(=O)c1cc(-c2ccccc2)nc2ccccc12)Nc1cccc(Cl)c1 | 3.87 µM
33 | N#CC1=C(N)SC(N)=C(C#N)C1c1c(Cl)cccc1Cl | 8.78 µM
34 | Oc1ccccc1-c1nc2c3ccccc3c3ccccc3c2[nH]1 | 2.43 µM
35 | Cn1nc(-c2ccccc2)c(CSc2cccc(Cl)c2)c1Cl | 1.08 µM
36 | O=C(CCN1C(=O)/C(=C/c2ccccc2Cl)SC1=S)NNC(=O)c1ccccc1O | 3.35 µM
37 | C=CCn1c(O)c(N=NC(=S)Nc2ccccc2F)c2ccccc21 | 0.572 µM
38 | Cc1cccc(NC(=S)Nc2ccc(Cl)c(Cl)c2)c1 | 9.6 µM
39 | CCc1cccc2sc(N3CCN(C(=O)c4ccc([N+](=O)[O-])o4)CC3)nc12 | 4.73 µM
40 | CC1(C)Cc2c(cnn2-c2ccccc2)-c2c1c1ccccc1n2CC(O)CCl (stereo not drawn) | 5.24 µM
41 | Cc1ccc(-n2sc3ccccc3c2=O)cc1 | 1.27 µM
42 | COc1ccc(N=C2S/C(=C\c3ccc(OC(C)C(=O)O)c(OC)c3)C(=O)N2CCc2c[nH]c3ccccc23)cc1 (stereo not drawn) | 1.63 µM
43 | CCCOC(=O)c1ccc(Oc2cn[nH]c2-c2ccc(OC)cc2O)cc1 | 7.36 µM
44 | Cc1cc(C)c2nc(-c3ccncc3)cc(C(=O)N3CCN(Cc4ccccc4Cl)CC3)c2c1 | 4.72 µM
45 | COc1cccc(N2C(N)=NC(N)=NC2(C)C)c1 | 0.318 µM
46 | CCc1c(C)sc2nc(C(C)C)nc(SCC(=O)N3CCc4ccccc4C3)c12 | 7.89 µM
47 | C[C@H]1COC2=C1C(=O)C(=O)c1c2ccc2c1CCCC2(C)C | 3.95 µM
48 | Cc1nn(CC(=O)NC2C(=O)N3C(C(=O)O)=C(CSc4nnnn4C)CSC23)cc1Br (stereo not drawn) | < 0.06 µM
49 | CC1(C)Cc2nc3sc4c(OCc5ccccc5)ncnc4c3cc2CO1 | 4.19 µM
50 | CC1CCN(c2nc(CN3CCCCC3)nc3scc(-c4ccccc4)c23)CC1 | 3.02 µM
51 | CCCCc1ccc(NC(=O)NCc2ccccn2)cc1 | > 15 µM (inactive)
52 | N#C/C(=C(/O)CCl)c1nc2c(s1)CCc1ccccc1-2 | 12.2 µM
53 | CCOC(=O)c1cccc(N2C(N)=NC(N)=NC2(C)C)c1 | 0.109 µM
